36 molecules from patent US9657009B2, “Heteroaryl substituted pyridyl compounds useful as kinase modulators” (BRISTOL-MYERS SQUIBB COMPANY, priority 2012, dated 2017) can be followed below.

By IC50 is commonly meant the concentration that gives 50% inhibition.

The target in the first test is IRAK4 (Homo sapiens (Human), UniProt Q9NWZ3). The test can be described thus: IRAK4 Inhibition Assay. It is filed as biochemical.
Chain of IRAK4 (Q9NWZ3 whole entry, species assumed): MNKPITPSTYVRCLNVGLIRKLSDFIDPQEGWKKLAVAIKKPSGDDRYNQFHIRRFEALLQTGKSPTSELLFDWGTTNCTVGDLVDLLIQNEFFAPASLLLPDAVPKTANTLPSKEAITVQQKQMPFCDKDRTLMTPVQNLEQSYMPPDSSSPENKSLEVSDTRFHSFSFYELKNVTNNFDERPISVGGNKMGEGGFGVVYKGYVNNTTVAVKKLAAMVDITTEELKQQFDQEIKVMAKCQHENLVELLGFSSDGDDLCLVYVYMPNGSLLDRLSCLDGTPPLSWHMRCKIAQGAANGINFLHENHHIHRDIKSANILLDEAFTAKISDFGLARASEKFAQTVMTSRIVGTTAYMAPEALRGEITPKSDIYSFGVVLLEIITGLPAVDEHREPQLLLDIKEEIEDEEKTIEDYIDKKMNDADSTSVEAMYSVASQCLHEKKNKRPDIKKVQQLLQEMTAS
Conditions: not given
As to the method: IRAK4 Inhibition Assay The assays were performed in U-bottom 384-well plates. […] The reaction was initiated by the combination of IRAK4 with substrates and test compounds. The reaction mixture was incubated at room temperature for 60 min. and terminated by adding 45 μL of 35 mM EDTA to each sample.
In the case of `CC(C)(O)[C@H](F)CNC(=O)c1cnc(Nc2nc(-c3cccnc3)cs2)cc1NC1CC1` [Example 23, 4-(cyclopropylamino)-N-((2R)-2-fluoro-3-hydroxy-3-methylbutyl)-6-((4-(3-pyridinyl)-1,3-thiazol-2-yl)amino)nicotinamide], the IC50 worked out at 23.3 nM.

The test is the same for the next values; noted with them: ATP 500 μM; IRAK4 0.6 nM; 60 min at room temperature; read-out: IRAK4 IC50.
`CC(C)Nc1cc(Nc2ccc(C#N)c(N3CCC(O)C3)n2)ncc1C(=O)NC[C@@H](F)C(C)(C)O` (stereo in doubt) [Example 27, 6-((5-cyano-6-((3S)-3-hydroxy-1-pyrrolidinyl)-2-pyridinyl)amino)-N-((2R)-2-fluoro-3-hydroxy-3-methylbutyl)-4-(isopropylamino)nicotinamide]: the IC50 is 6 nM.
Same read-out and setting: then `CNC(=O)c1cnc(Nc2ccc(C#N)cn2)cc1N[C@@H](c1ccccc1)[C@H](O)CO` [Example 1, 6-((5-cyano-2-pyridinyl)amino)-4-(((1S,2S)-2,3-dihydroxy-1-phenylpropyl)amino)-N-methylnicotinamide], with 53.9 nM; and `CC(C)Nc1cc(Nc2ccc(C#N)cn2)ncc1C(=O)NC[C@@H](F)C(C)(C)O` [Example 2, 6-((5-cyano-2-pyridinyl)amino)-N-((2R)-2-fluoro-3-hydroxy-3-methylbutyl)-4-(isopropylamino)nicotinamide], with 2 nM.
Consider `CC(C)(O)[C@H](F)CNC(=O)c1cnc(Nc2ccc(C#N)cn2)cc1NCC(F)(F)F` [Example 3, 6-((5-cyano-2-pyridinyl)amino)-N-((2R)-2-fluoro-3-hydroxy-3-methylbutyl)-4-((2,2,2-trifluoroethyl)amino)nicotinamide], for which the IC50 came out at 14.8 nM.
As to `CCNc1cc(Nc2ccc(C#N)cn2)ncc1C(=O)NC[C@@H](F)C(C)(C)O` [Example 4, 6-((5-cyano-2-pyridinyl)amino)-4-(ethylamino)-N-((2R)-2-fluoro-3-hydroxy-3-methylbutyl)nicotinamide], the IC50 came to 10.3 nM.
Regarding `CC(C)Nc1cc(Nc2ccc(C#N)cn2)ncc1C(=O)N[C@H]1CC[C@H](C(=O)NC2CC2)CC1` [Example 6, 6-((5-cyanopyridin-2-yl)amino)-N-((1R,4R)-4-(cyclopropylcarbamoyl)cyclohexyl)-4-(isopropylamino)nicotinamide], the IC50 worked out at 5.5 nM.
Still for that read-out and setting: then `CC(C)Nc1cc(Nc2ccc(C#N)cn2)ncc1C(=O)N[C@H]1CC[C@H](C(=O)N[C@H]2C[C@H]2F)CC1` [Example 7, 6-((5-cyano-2-pyridinyl)amino)-N-(trans-4-(((1S,2R)-2-fluorocyclopropyl)carbamoyl)cyclohexyl)-4-(isopropylamino)nicotinamide], with 10.4 nM; and `CC(=O)N1CCC(NC(=O)c2cnc(Nc3ccc(C#N)cn3)cc2NC(C)C)CC1` [Example 8, N-(1-acetyl-4-piperidinyl)-6-((5-cyano-2-pyridinyl)amino)-4-(isopropylamino)nicotinamide], with 30.7 nM.
Same read-out and setting: then `CC(=O)N[C@H]1CC[C@H](NC(=O)c2cnc(Nc3ccc(C#N)cn3)cc2NC(C)C)CC1` [Example 9, N-(trans-4-acetamidocyclohexyl)-6-((5-cyano-2-pyridinyl)amino)-4-(isopropylamino)nicotinamide], with 7.4 nM; and `CC(=O)N[C@H]1CC[C@H](NC(=O)c2cnc(Nc3ccc(C#N)cn3)cc2NC2CCOCC2F)CC1` (stereo partly drawn) [Example 11, N-((1R,4R)-4-acetamidocyclohexyl)-6-((5-cyanopyridin-2-yl)amino)-4-(((3S,4R)-3-fluorotetrahydro-2H-pyran-4-yl)amino)nicotinamide], with 11.1 nM; and `CC(C)Nc1cc(Nc2ncc(C#N)cc2Cl)ncc1C(=O)NC[C@@H](F)C(C)(C)O` [Example 12, 6-((3-chloro-5-cyano-2-pyridinyl)amino)-N-((2R)-2-fluoro-3-hydroxy-3-methylbutyl)-4-(isopropylamino)nicotinamide], with 1.9 nM.
Same read-out and setting: the same measure for `CC(=O)N[C@H]1CC[C@H](NC(=O)c2cnc(Nc3ncc(C#N)cc3Cl)cc2NC(C)C)CC1` [Example 15, N-((1r,4r)-4-acetamidocyclohexyl)-6-((3-chloro-5-cyanopyridin-2-yl)amino)-4-(isopropylamino)nicotinamide]: 5.2 nM; for `CNC(=O)[C@H]1CC[C@H](NC(=O)c2cnc(Nc3ncc(C#N)cc3Cl)cc2NC(C)C)CC1` [Example 16, 6-((3-chloro-5-cyanopyridin-2-yl)amino)-4-(isopropylamino)-N-((1r,4r)-4-(methylcarbamoyl)cyclohexyl)nicotinamide]: 6.3 nM.
In the case of `CC(C)Nc1cc(Nc2ncc(C#N)cc2F)ncc1C(=O)NC[C@@H](F)C(C)(C)O` [Example 17, 6-((5-cyano-3-fluoro-2-pyridinyl)amino)-N-((2R)-2-fluoro-3-hydroxy-3-methylbutyl)-4-(isopropylamino)nicotinamide], the IC50 was determined as 9.6 nM.
Same read-out and setting: then `CNC(=O)[C@H]1CC[C@H](NC(=O)c2cnc(Nc3ncc(C#N)cc3F)cc2NC(C)C)CC1` [Example 18, 6-((5-cyano-3-fluoropyridin-2-yl)amino)-4-(isopropylamino)-N-((1r,4r)-4-(methylcarbamoyl)cyclohexyl)nicotinamide], with 3.4 nM; and `CC(=O)N[C@H]1CC[C@H](NC(=O)c2cnc(Nc3ncc(C#N)cc3F)cc2NC(C)C)CC1` [Example 19, N-(trans-4-acetamidocyclohexyl)-6-((5-cyano-3-fluoro-2-pyridinyl)amino)-4-(isopropylamino)nicotinamide], with 4.8 nM.
Still for that read-out and setting: then `CC(C)Nc1cc(Nc2ccncn2)ncc1C(=O)NC[C@@H](F)C(C)(C)O` [Example 20, N-((2R)-2-fluoro-3-hydroxy-3-methylbutyl)-4-(isopropylamino)-6-(4-pyrimidinylamino)nicotinamide], with 11.7 nM.
Same read-out and setting: then `CC(C)(O)[C@H](F)CNC(=O)c1cnc(Nc2ccncn2)cc1NC1CC1` [Example 21, 4-(cyclopropylamino)-N-((2R)-2-fluoro-3-hydroxy-3-methylbutyl)-6-(4-pyrimidinylamino)nicotinamide], with 13.3 nM.
Take `CC(C)Nc1cc(Nc2ncc(C#N)cn2)ncc1C(=O)NC[C@@H](F)C(C)(C)O` [Example 22, 6-((5-cyano-2-pyrimidinyl)amino)-N-((2R)-2-fluoro-3-hydroxy-3-methylbutyl)-4-(isopropylamino)nicotinamide]: the IC50 worked out at 5.3 nM.
In the case of `CC(C)Nc1cc(Nc2ccnc(NC3CC3)n2)ncc1C(=O)NC[C@@H](F)C(C)(C)O` [Example 24, 6-((2-(cyclopropylamino)-4-pyrimidinyl)amino)-N-((2R)-2-fluoro-3-hydroxy-3-methylbutyl)-4-(isopropylamino)nicotinamide], the IC50 is 11 nM.
The same measure, in the same setting: the same measure for `CC(C)Nc1cc(Nc2ccnc(NC3CCCOC3)n2)ncc1C(=O)NC[C@@H](F)C(C)(C)O` (stereo partly drawn) [Example 25, N-((2R)-2-fluoro-3-hydroxy-3-methylbutyl)-4-(isopropylamino)-6-((2-(tetrahydro-2H-pyran-3-ylamino)-4-pyrimidinyl)amino)nicotinamide]: 9.9 nM; for `CC(C)Nc1cc(Nc2ccnc(N3CCC(F)C3)n2)ncc1C(=O)NC[C@@H](F)C(C)(C)O` (stereo partly drawn) [Example 26, N-((2R)-2-fluoro-3-hydroxy-3-methylbutyl)-6-((2-(3-fluoro-1-pyrrolidinyl)-4-pyrimidinyl)amino)-4-(isopropylamino)nicotinamide]: 4.8 nM; for `CC(=O)N[C@H](C)CCNC(=O)c1cnc(Nc2ncc(C#N)cc2Cl)cc1NC(C)C` [Example 28, (R)—N-(3-acetamidobutyl)-6-((3-chloro-5-cyanopyridin-2-yl)amino)-4-(isopropylamino)nicotinamide]: 1.5 nM.
Regarding `CC(C)NC(=O)N[C@H](C)CCNC(=O)c1cnc(Nc2ncc(C#N)cc2F)cc1NC(C)C` [Example 29, (R)-6-((5-cyano-3-fluoropyridin-2-yl)amino)-4-(isopropylamino)-N-(3-(3-isopropylureido)butyl)nicotinamide], the IC50 is 1.2 nM.
On the same count and under the same terms, then `CC(C)Nc1cc(Nc2ncc(C#N)cc2F)ncc1C(=O)N[C@H]1CC[C@H](S(C)(=O)=O)CC1` [Example 33, 6-((5-cyano-3-fluoropyridin-2-yl)amino)-4-(isopropylamino)-N-((1R,4R)-4-(methylsulfonyl)cyclohexyl)nicotinamide], with 10 nM; and `CC(=O)Nc1nc(Nc2cc(NC(C)C)c(C(=O)NC[C@@H](F)C(C)(C)O)cn2)ncc1C#N` [Example 34], with 6.1 nM.
Regarding `CC(C)(O)[C@H](F)CNC(=O)c1cnc(Nc2ncc(C(N)=O)cc2Cl)cc1NC1CCC(F)C1` (stereo partly drawn) [Example 38], the IC50 is 4.5 nM.
On to `C[C@@H](CF)Nc1cc(Nc2ncc(C#N)cc2Cl)ncc1C(=O)NC[C@@H](F)C(C)(C)O` [Example 39, 6-((3-chloro-5-cyanopyridin-2-yl)amino)-N—((R)-2-fluoro-3-hydroxy-3-methylbutyl)-4-(((S)-1-fluoropropan-2-yl)amino)nicotinamide], for which the IC50 is 3.8 nM.
`CC(C)Nc1cc(Nc2ncc(C#N)c(NC(C)C)n2)ncc1C(=O)NC[C@@H](F)C(C)(C)O` [Example 40]: the IC50 turned out to be 6.4 nM.
Take `CC(C)(O)[C@H](F)CNC(=O)c1cnc(Nc2nc(OC3CCNCC3)ncc2Cl)cc1NC1CC1` [Example 42]: the IC50 amounted to 14.7 nM.
The same measure, in the same setting: the same measure for `CC(C)(O)C(F)(F)CNC(=O)c1cnc(Nc2ncc(C#N)cc2Cl)cc1NC1CC1` [Example 43, 6-((3-chloro-5-cyanopyridin-2-yl)amino)-4-(cyclopropylamino)-N-(2,2-difluoro-3-hydroxy-3-methylbutyl)nicotinamide]: 10.7 nM; for `CC(C)Nc1cc(Nc2ccc(=O)[nH]n2)ncc1C(=O)NC[C@@H](F)C(C)(C)O` [Example 45]: 7.5 nM.
Same read-out and setting: the same measure for `CC(C)(F)CNc1cc(Nc2ncc(C#N)cc2Cl)ncc1C(=O)NC[C@@H](F)C(C)(C)O` [Example 46]: 16.9 nM.
Still for that read-out and setting: the same measure for `CC(C)(O)[C@H](F)CNC(=O)c1cnc(Nc2ncc(C#N)cc2F)cc1NC1CC1` [Example 47]: 1.9 nM; for `CC(C)(O)[C@H](F)CNC(=O)c1cnc(Nc2ncc(C#N)cc2F)cc1NC1CCOCC1` [Example 49]: 3.1 nM.
